Data reported in patent publication US20100048733A1, “PENETRATION ENHANCER FOR FUNGICIDES” (Bayer CropScience AG, priority 2006, published 2010).
“Also recorded” adds a separate entry of the source.

How the values were obtained:
[1] = Penetration test: active substance penetration through enzymatically isolated apple leaf cuticles in diffusion cells, radioactively marked active substance; format: in vitro ADME, apple trees of the Golden Delicious variety
Experimental: In this test, the penetration of active substances through enzymatically isolated cuticles of apple tree leaves was measured.
Leaves which were cut off in the stage of full development of apple trees of the Golden Delicious variety were used. The isolation of the cuticles was effected in a manner such that • first, leaf disks marked on the underside with dye and punched out were filled by means of vacuum infiltration with a pectinase solution (0.2 to 2% strength by weight) buffered to a pH between 3 and 4, • sodium azide was then added and • the leaf disks thus treated were allowed to stand until disintegration of the original leaf structure and detachment of the noncellular cuticle.
Thereafter, only those cuticles of the upper sides of the leaves which were free of stomata and hairs were further used. They were washed several times alternately with water and a buffer solution at pH 7. The cleaned cuticles obtained were finally drawn onto small Teflon plates and smoothed and dried with a gentle air jet.
In the next step, the cuticle membranes thus obtained were placed in stainless steel diffusion cells (=transport chambers) for membrane transport investigations. For this purpose, the cuticles were placed by means of forceps centrally on the silicone grease-coated edges of the diffusion cells and closed with a likewise greased ring. The arrangement was chosen so that the morphological outside of the cuticles faced outward, i.e. toward the air, while the original inside faced the interior of the diffusion cell. The diffusion cells were filled with water or with a mixture of water and solvent.
For determining the penetration, in each case 10 μl of a spray liquor of the composition mentioned in the examples were applied to the outside of a cuticle.
In each case the solvents listed below in the table (tap water or a mixture with 20% by weight of acetone/80% by weight of tap water) were used in the spray liquors.
After the application of the spray liquors, in each case the solvent was allowed to evaporate, and in each case the chambers were then turned around and placed in thermostated trays, air having a defined temperature and atmospheric humidity being blown onto the outside of the cuticle. The incipient penetration therefore took place at a relative humidity of 60% and a set temperature of 20 or 25° C. The active substance penetration was measured with radioactively marked active substance.

crop plant = assay: Crop plant tolerance tests; format: in vivo; details: compared with other alkyl ester additives; no data shown
[2] = penetration of tebuconazole 0.3 g/l, without or with 2.0 g/l penetration enhancer, acetone/tap water 20/80% by weight, apple leaf cuticles, T = 20-25° C., rel. humidity 56-60%, mean of 4-8 repetitions

## CCCCOCCOP(=O)(OCCOCCCC)OCCOCCCC [TBEP, tributoxyethyl phosphate]
[1]; summary of tables 1 and 2, 2.0 g/l TBEP with 0.3 g/l fungicide
  Effect of the penetration enhancer on uptake of the active substances (in words): considerable increase in uptake of the active substances; also recorded: advantageously higher increase in uptake of active substances than the penetration enhancers of the prior art
Crop plant
  Crop plant tolerance: more tolerant than other alkyl ester additives

## O=C(NCc1ncc(C(F)(F)F)cc1Cl)c1c(Cl)cccc1Cl [fluopicolid, 2,6-dichloro-N-[[3-chloro-5-(trifluoromethyl)-2-pyridinyl]methyl]benzamide]
[1]; apple tree, 3 h, 0.3 g/l
  % Penetration (after hours): 3 hours: 0.1 (3) %
[1]; apple tree, 24 h, 0.3 g/l
  % Penetration (after hours): 24 hours: 0.6 (24) %

## OC(Cc1ccccc1Cl)(Cn1nc[nH]c1=S)C1(Cl)CC1 (centres unmarked) [prothioconazole]
[1]; after 3 h, 0.3 g/l active substance, without or with 2.0 g/l TBEP, acetone/tap water 20/80% by weight, apple leaf cuticles, T = 20-25° C., rel. humidity 56-60%, mean of 4-8 repetitions
  % Penetration (after hours): 3 hours: 0.04 (3) %
[1]; after 24 h, 0.3 g/l active substance, without or with 2.0 g/l TBEP, acetone/tap water 20/80% by weight, apple leaf cuticles, T = 20-25° C., rel. humidity 56-60%, mean of 4-8 repetitions
  % Penetration (after hours): 24 hours: 0.6 (24) %

## CC(C)(C)C(O)(CCc1ccc(Cl)cc1)Cn1cncn1 (centres unmarked) [tebuconazole]
[1]; [2]
  % Penetration (after 3 hours): 0.9%
  % Penetration (after 24 hours): 1.1%
